The values that follow come from article PMC6837341, “Evolutionarily conserved susceptibility of the mitochondrial respiratory chain to SDHI pesticides and its consequence on the impact of SDHIs on human cultured cells” (PLoS ONE, 2019).

Read-outs that look alike come from different tables or passages of the source.

Data set [1] is described as follows: Acceptable Daily Intake according to European regulations and corresponding blood concentration. The protocol: It is extremely hazardous to compare the IC50 values obtained in vitro under laboratory conditions with the concentrations of SDHI that might result from the application of these pesticides on crops. One can however reliably determine the concentration of SDHI at the outlet of the diffusion nozzles. In the case of bixafen, it is about 0.6 to 1.8 mM according to the recommendations distributed to farmers, resulting in a cloud of nebulization, corresponding to 75–125 g/hectare of bixafen. The final exposition depends on numerous factors hard to control, including the spreading conditions, the nature of the ground, its vegetation cover, etc. From a regulatory point of view, the ADI for example for boscalid and bixafen amounts to 0.04 and 0.02 mg / kg / day, respectively (see legend S2 Fig). For an average adult (60 kg / blood volume 5 l), this correspond to a blood concentration of approximately 1.40 and 0.58 μM, respectively.
Supplementary file pone.0224132.s003.pdf: S2 Fig SDHI molecular structure. The yellow and blue parts for each molecule are reminiscent of the predecessor carboxin structure (top). […] ADI; Acceptable Daily Intake according to European regulations. (PDF) Click here for additional data file.

Data set [2] concerns the target T1, glycerol-3-phosphate cytochrome c reductase (G3PDH+CIII) (Botrytis cinerea, UniProt Q18ND9).
T1 sequence (Q18ND9 1-391): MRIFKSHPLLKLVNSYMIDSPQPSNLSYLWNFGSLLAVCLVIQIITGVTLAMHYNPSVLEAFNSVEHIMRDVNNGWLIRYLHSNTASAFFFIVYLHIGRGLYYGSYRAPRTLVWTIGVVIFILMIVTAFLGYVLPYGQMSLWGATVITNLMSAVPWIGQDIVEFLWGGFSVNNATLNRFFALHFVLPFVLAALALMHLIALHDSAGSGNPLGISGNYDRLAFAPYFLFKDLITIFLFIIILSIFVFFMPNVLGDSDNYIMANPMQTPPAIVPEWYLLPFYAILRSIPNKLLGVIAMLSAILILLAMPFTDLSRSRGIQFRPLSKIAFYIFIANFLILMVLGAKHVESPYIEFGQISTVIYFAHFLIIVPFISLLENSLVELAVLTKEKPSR
Description: GCCR activity, Botrytis cinerea mitochondria. It counts as biochemical. The protocol:
The mixed population of B. cinerea fungi used in this study was kindly provided by Dr. Joelle Dupont (Museum National d’Histoire Naturelle, Paris, France). Conidia from Botrytis cinerea were obtained from 15–30 d cultures grown on malt medium agar plates. Mycelial colonies were prepared by seeding conidia from 10 colonies in liquid medium (10 g of glucose, 2 g of KH2PO4, 0.5 g of MgSO47H2O, 1 g of (NH4)2SO4, 2 g of yeast extract and deionized water up to 1 l, pH 6.2). Incubation was performed at 23°C until hyphae totally covered the surface of the bottle. The hyphae (9-cm-diameter disks) were harvested, washed twice with refrigerated distilled water and finally with mitochondria extraction medium containing 20 mM Tris (pH 7.2), 0.25 M sucrose, 40 mM KCl, 2 mM EGTA, 1 mg/ml BSA, and no cysteine. The hyphae were suspended in 150 ml of extraction medium, cut in small pieces (1 cm^2) and then disrupted at high speed for 1×2 sec and at low speed for 2×3 sec using a MultiMoulinex mixer (Moulinex, France). The suspension of disrupted hyphae was then filtered through two layers of nylon cloth (clearance 150 μm). The cloth was washed with 50 ml of extraction medium. After low-speed centrifugation (700 g for 15 min), the mitochondria were collected at 10,000 g for 20 min. The pellet was suspended in 250 μl of extraction medium, aliquoted (± 30 μl) and kept frozen at -80°C.
RC enzyme activities were spectrophotometrically measured using a pseudo-double-wavelength spectrophotometer (Cary 60, Agilent). Malonate-sensitive succinate quinone dichlorophenolindophenol (DCPIP) reductase (SQDR), as an indicator of the activity of the isolated SDH enzyme (isolated CII), and glycerol-3-phosphate quinone DCPIP reductase (GQDR), as a measure of the activity of the isolated glycerol-3-phosphate dehydrogenase (G3PDH), were assayed as previously described. […] With this aim, we measured the malonate-sensitive succinate cytochrome c reductase (SDH+CIII), glycerol-3-phosphate cytochrome c reductase (G3PDH+CIII) and antimycin-sensitive quinol cytochrome c reductase (CIII) as previously described.
The effects of eight different SDHIs (up to 500 μM; S2 Fig) were determined on four different biological materials. Because IC50 are known to be affected by the actual absolute activity of the tested enzyme, these IC50 were quantified using similar levels of SDH enzyme activity during the assay. IC50 values were determined using the AAT Bioquest IC50 calculator tool (https://www.aatbio.com/tools/ic50-calculator).

In the case of `Cn1cc(C(=O)Nc2ccc(F)cc2-c2ccc(Cl)c(Cl)c2)c(C(F)F)n1` [Bixafen, bixafen], the “Blood concentration corresponding to the ADI” value in data set [1] came out at 580 nM. Moreover, the IC50 – broadly, the concentration that inhibits the measured activity by half – in data set [2] was 22.5 µM. Take `Cn1cc(C(=O)Nc2ccccc2-c2cc(F)c(F)c(F)c2)c(C(F)F)n1` [Fluxapyroxad, fluxapyroxad]: in data set [1], the “Blood concentration corresponding to the ADI” value was determined as 580 nM. Also, in data set [2], the IC50 is 60 µM. With `Cc1nn(C)c(F)c1C(=O)Nc1ccccc1C(C)CC(C)C` (stereo not shown) [Penflufen, penflufen], in data set [2], it took 80 µM to reach half-maximal inhibition (IC50). The compound `CC(C)C1C2CCC1c1c(NC(=O)c3cn(C)nc3C(F)F)cccc12` (stereo not shown) [Isopyrazam, isopyrazam] registered an IC50 in data set [2] of 27.9 µM.

For the compound `O=C(Nc1ccccc1-c1ccc(Cl)cc1)c1cccnc1Cl` [Boscalid, boscalid], in data set [1] (average adult 60 kg, blood volume 5 l), the “Blood concentration corresponding to the ADI” value is “approximately 1.40 μM”.
